Patent US8143428B2, “Heteroaryl sulfones and sulfonamides and therapeutic uses thereof” (Temple University-Of The Commonwealth System of Higher …, priority 2004, dated 2012)

Legend:
Type in all cases: cell-based
[1] = test system: chronic myeloid leukemia (K562) cell line; test: Growth of human tumor cells in culture, K562 (Trypan blue exclusion); details: 96 h continuous treatment, viable cells by Trypan blue exclusion
Protocol: (§1) The effect of compounds according to Formula I on the growth of human tumor cells in culture was evaluated using androgen receptor negative prostate (DU145), colo-rectal (DLD-1), non-small cell lung carcinoma (H157), estrogen receptor negative breast (BT20) and chronic myeloid leukemia (K562) cell lines. All cell cultures were maintained at 37° C. in a humidified atmosphere of 5% CO2.
(§2) Cells were treated with compounds according to Formula I at five different concentrations (1-100 μM range) for each compound. The dose response of each cell line was established by determining the number of viable cells after 96 h of continuous treatment against each of the different test concentrations of each compound. The determination of viable cells was done by the by the Trypan blue exclusion method. Activity for each compound at each concentration is reported as a percentage of cells that remain viable.

[2] = test system: androgen receptor negative prostate (DU145) cell line; test: Growth of human tumor cells in culture, DU145 (Trypan blue exclusion); details: 96 h continuous treatment, viable cells by Trypan blue exclusion
Protocol: as §1, §2

JNK1 = biological target: T1, JNK1 (Homo sapiens, UniProt P45983); test: Activation of Jun kinase: JNK1 immunoprecipitated from treated BT-20 cells, phosphorylation of GST-c-Jun; details: 50 and 100 μM in DMSO, 12 hours at 37° C., compared to DMSO controls
T1 construct: JNK1 in 100 μg of cell lysate was immunoprecipitated; endogenous in cells; host or cells: BT-20 cells
T1 sequence (P45983 whole entry): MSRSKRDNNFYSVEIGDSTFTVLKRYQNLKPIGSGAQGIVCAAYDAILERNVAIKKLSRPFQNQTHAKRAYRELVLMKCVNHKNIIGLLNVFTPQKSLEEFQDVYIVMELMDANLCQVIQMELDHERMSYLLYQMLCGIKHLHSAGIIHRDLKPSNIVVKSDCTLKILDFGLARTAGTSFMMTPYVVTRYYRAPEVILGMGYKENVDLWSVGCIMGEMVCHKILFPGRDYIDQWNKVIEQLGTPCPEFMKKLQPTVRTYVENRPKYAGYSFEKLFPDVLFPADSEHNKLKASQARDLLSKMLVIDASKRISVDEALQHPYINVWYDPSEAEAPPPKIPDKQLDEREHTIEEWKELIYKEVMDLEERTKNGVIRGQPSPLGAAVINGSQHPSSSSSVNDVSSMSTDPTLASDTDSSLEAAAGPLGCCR
Protocol: The compounds of Examples 1, 2, 7, 8 and 9 from Table 3 were analyzed for activation of the Jun kinase signaling pathway. The selected compounds were added to BT-20 cells at concentrations of 50 and 100 μM in dimethyl sulfoxide (DMSO) and incubated for 12 hours at 37° C. The cells were harvested and lysed after 12 hours of treatment. The cell lysates were then analyzed for c-Jun kinase activity by immunoprecipitating JNK1 and assessing the ability of these immunoprecipitates to phosphorylate GST-linked c-Jun. Lysis of the cells was performed after incubation with […], using the lysis buffer [25 mM N-2-hydroxyethylpiperazine-N′-2-ethanesulfonic acid (HEPES) (pH 7.6), 0.1% Triton, 300 mM NaCl, 20 mM β-glycerophosphate, 1.5 mM MgCl2, 0.2 mM ethylenediaminetetraacetic acid (EDTA), 0.5 mM dithiothreitol (DTT), 0.2 mM Na3VO4, 100 μM phenylmethylsulfonyl fluoride (PMSF), 1 mM benzamidine, 2 μg/mL leupeptin and 4 μg/mL aprotinin]. Protein concentrations were measured using Bio-Rad protein assay reagent. JNK1 in 100 μg of cell lysate was immunoprecipitated by incubating […] of lysate protein with […] of the JNK1 polyclonal antibody (Santa Cruz Biotechnology, Inc.,) for 1 h followed by an additional incubation with […] of protein A-Sepharose (Pharmacia) for 1 h. The immune complex bound protein A-Sepharose beads were washed twice with the lysis buffer and twice with JNK buffer (20 mM HEPES, pH 7.6, 20 mM β-glycerophosphate, 10 mM MgCl2 and […] Na3VO4. The kinase reaction was carried out by resuspending the complex bound protein A-Sepharose beads in […] of JNK buffer containing […] [γ-^32P]ATP (5000 CPM/pmol) and incubating them for 20 min at 30° C. using 5 mg GST-c-Jun as substrate. The reaction was terminated by the addition of Laemmli's buffer. The samples were then boiled for 3 min. The phosphorylated GST-c-Jun was then separated on 12% SDS-PAGE. Following the separation, the gel was dried, and an autoradiogram was developed which is reproduced in FIG. 1.

[3] = test system: colo-rectal (DLD-1) cell line; test: Growth of human tumor cells in culture, DLD-1 (Trypan blue exclusion); details: DLD-1 cells, 96 h continuous treatment, viable cells by Trypan blue exclusion
Protocol: as §1, §2

[4] = test system: non-small cell lung carcinoma (H157) cell line; test: Growth of human tumor cells in culture, H157 (Trypan blue exclusion); details: viable cells by Trypan blue exclusion
Protocol: as §1, §2

[5] = test system: estrogen receptor negative breast (BT20) cell line; test: Growth of human tumor cells in culture, BT20 (Trypan blue exclusion); details: 96 h continuous treatment, viable cells by Trypan blue exclusion
Protocol: as §1, §2

[6] = Homo sapiens, NCI-H157, 96 h continuous treatment

| Compound | GI50 ([1]; Homo sapiens, K562, 96 h) | GI50 ([2]; Homo sapiens, DU-145, 96 h) | c-Jun kinase activity: phosphorylation of GST-c-Jun by immunoprecipitated JNK1 (autoradiogram, FIG. 1) (JNK1) | GI50 ([3]; Homo sapiens, DLD-1, 96 h) | GI50 [4, 6] | GI50 ([5]; Homo sapiens, BT-20, 96 h) | GI50 [1] | GI50 [2] | GI50 [3] | GI50 ([4]; 96 h continuous treatment) | GI50 [5] |
| --- | --- | --- | --- | --- | --- | --- | --- | --- | --- | --- | --- |
| COc1ccc2oc(=O)c(S(=O)(=O)Nc3ccc(Br)cc3)cc2c1 [Example 7, N-(4-Bromophenyl)-6-methoxy-2-oxo-2H-chromene-3-sulfonamide] | 27 µM | 25 µM | hyperphosphorylated | 38 µM | 32 µM | 18 µM | – | – | – | – | – |
| COc1ccc2oc(=O)c(S(=O)(=O)Nc3ccc(F)c(N)c3)cc2c1 [Example 6, N-(3-Amino-4-fluorophenyl)-6-methoxy-2-oxo-2H-chromene-3-sulfonamide] | 44 µM | 56 µM | – | 92 µM | 78 µM | 68 µM | – | – | – | – | – |
| COc1ccc(NS(=O)(=O)c2cc3cc(Br)ccc3oc2=O)cc1 [Example 1, 6-Bromo-N-(4-methoxyphenyl)-2-oxo-2H-chromene-3-sulfonamide] | 14 µM | 15 µM | hyperphosphorylated | 20 µM | 18 µM | 16 µM | – | – | – | – | – |
| CCOc1cccc2cc(S(=O)(=O)Nc3ccc(OC)cc3)c(=O)oc12 [Example 3, 8-Ethoxy-N-(4-methoxyphenyl)-2-oxo-2H-chromene-3-sulfonamide] | – | – | – | – | – | – | 48 µM | 57 µM | 78 µM | 74 µM | 52 µM |
| COc1ccc(NS(=O)(=O)c2cc3cc(Cl)ccc3oc2=O)cc1 [Example 2, 6-Chloro-N-(4-methoxyphenyl)-2-oxo-2H-chromene-3-sulfonamide] | 23 µM | 22 µM | hyperphosphorylated | 32 µM | 28 µM | 27 µM | – | – | – | – | – |
| O=c1oc2c(Br)cccc2cc1S(=O)(=O)Nc1ccc(Br)cc1 [Example 10, N-(4-Bromophenyl)-8-bromo-2-oxo-2H-chromene-3-sulfonamide] | 16 µM | 12 µM | – | 14 µM | 15 µM | 12 µM | – | – | – | – | – |
| CCOc1cccc2cc(S(=O)(=O)Nc3ccc(F)c(N)c3)c(=O)oc12 [Example 5, N-(3-Amino-4-fluorophenyl)-8-ethoxy-2-oxo-2H-chromene-3-sulfonamide] | 42 µM | 48 µM | – | 80 µM | 72 µM | 54 µM | – | – | – | – | – |
| O=c1oc2c(Cl)cccc2cc1S(=O)(=O)Nc1ccc(Br)cc1 [Example 9, N-(4-Bromophenyl)-8-chloro-2-oxo-2H-chromene-3-sulfonamide] | 11 µM | 14 µM | hyperphosphorylated | 18 µM | 16 µM | 17 µM | – | – | – | – | – |
| COc1ccc(NS(=O)(=O)c2cc3cc(Cl)ccc3oc2=O)cc1O [Example 4, 6-Chloro-N-(3-hydroxy-4-methoxyphenyl)-2-oxo-2H-chromene-3-sulfonamide] | 51 µM | 42 µM | – | 82 µM | 76 µM | 65 µM | – | – | – | – | – |
| CCOc1cccc2cc(S(=O)(=O)Nc3ccc(OC)cc3)c(=O)oc12 [Example 8, 8-Ethoxy-N-(4-methoxyphenyl)-2-oxo-2H-chromene-3-sulfonamide] | 58 µM | 52 µM | hyperphosphorylated | 85 µM | 74 µM | 64 µM | – | – | – | – | – |
